Experimental data reported in US10799605B2 (3B PHARMACEUTICALS GMBH, priority 2014, dated 2020).
Read-outs that look alike come from different tables or passages of the source.

Columns and labels:
[1] = target: dopamine transporter (h) (Homo sapiens (Human), UniProt Q01959); experiment: ExpresSProfile: dopamine transporter, antagonist radioligand; type: binding; settings: Test Concentration 1.0E−05 M
[2] = target: MT1 (ML1A) (h) (Homo sapiens (Human), UniProt P48039); experiment: ExpresSProfile: melatonin receptor 1, agonist radioligand; type: binding; settings: Test Concentration 1.0E−05 M
[3] = tested on: GPCRs, ion channels, and transporter proteins; experiment: Specificity screening (ExpresSProfile), whole panel; type: binding; settings: 10^−5 M
Procedure: The specificity screening was carried out in order to test for unspecific binding of compounds of the present invention. The specificity for NTR1 was tested using a standard battery of assays (“ExpresSProfile”) comprising 55 assays on GPCRs, ion channels, and transporter proteins. This assay was performed by Cerep (Celle l'Evescault, France; Catalog reference P1).
Unspecific binding according to this specificity screening is observed if Inhibition of Control Specific Binding is above 50%.

[4] = target: beta 1 (h) (Homo sapiens (Human), UniProt P08588); experiment: ExpresSProfile: beta1 adrenergic receptor, agonist radioligand; type: binding; settings: Test Concentration 1.0E−05 M
[5] = target: A1 (h) (Homo sapiens (Human), UniProt P30542); experiment: ExpresSProfile: adenosine receptor 1, antagonist radioligand; type: binding; settings: Test Concentration 1.0E−05 M
[6] = target: norepinephrine transporter (h) (Homo sapiens (Human), UniProt P23975); experiment: ExpresSProfile: norepinephrine transporter, antagonist radioligand; type: binding; settings: Test Concentration 1.0E−05 M
[7] = target: A2A (h) (Homo sapiens (Human), UniProt P29274); experiment: ExpresSProfile: adenosine receptor 2A, agonist radioligand; type: binding; settings: Test Concentration 1.0E−05 M
[8] = target: H2 (h) (Homo sapiens (Human), UniProt P25021); experiment: ExpresSProfile: histamine receptor 2, antagonist radioligand; type: binding; settings: Test Concentration 1.0E−05 M
[9] = target: M2 (h) (Homo sapiens (Human), UniProt P08172); experiment: ExpresSProfile: muscarinic receptor 2, antagonist radioligand; type: binding; settings: Test Concentration 1.0E−05 M
[10] = target: 5-HT1A (h) (Homo sapiens (Human), UniProt P08908); experiment: ExpresSProfile: 5-hydroxytryptamine receptor 1A, agonist radioligand; type: binding; settings: Test Concentration 1.0E−05 M
[11] = target: M1 (h) (Homo sapiens (Human), UniProt P11229); experiment: ExpresSProfile: muscarinic receptor 1, antagonist radioligand; type: binding; settings: Test Concentration 1.0E−05 M
[12] = target: VPAC1 (VIP1) (h) (Homo sapiens (Human), UniProt P32241); experiment: ExpresSProfile: vasoactive intestinal polypeptide receptor 1, agonist radioligand; type: binding; settings: Test Concentration 1.0E−05 M
[13] = target: NK2 (h) (Homo sapiens (Human), UniProt P21452); experiment: ExpresSProfile: neurokinin receptor 2, agonist radioligand; type: binding; settings: Test Concentration 1.0E−05 M
[14] = target: GAL2 (h) (Homo sapiens (Human), UniProt O43603); experiment: ExpresSProfile: galanin receptor 2, agonist radioligand; type: binding; settings: Test Concentration 1.0E−05 M
[15] = Plasma protein binding assay, mouse; type: in vitro ADME; settings: plasma proteins, 4 h at 37° C., equilibrium dialysis, read-out: % bound [mouse] (converted)
From the text: A drug's efficiency may be affected by the degree to which it binds to the proteins within blood plasma. A drug in blood exists in two forms: bound and unbound. Depending on a specific drug's affinity for plasma protein, a proportion of the drug may become bound to plasma proteins, with the remainder being unbound. […] It is also the fraction that may be metabolized and/or excreted. Protein binding can influence the drug's biological half-life in the body. The bound portion may act as a reservoir or depot from which the drug is slowly released as the unbound form. In order to determine the binding characteristics of the compounds of the present invention as listed in the following Table to human or mouse plasma protein, respectively, a plasma protein binding assay was carried out. All compounds have a plasma protein binding that is appropriate for diagnostic, therapeutic and theranostic use of these compounds according to the present invention.
The binding of test substances to human and murine plasma proteins was tested by Cerep (Celle l'Evescault, France; Catalog reference 2194 [human] and 2223 [mouse]) according to Banker et al., J. Pharm. Sci., 2003, 92, 967-974. Test compounds were incubated with human or murine plasma proteins for 4 h at 37° C. Subsequently, the fraction of compound bound to plasma proteins was determined by equilibrium dialysis and HPLC-MS/MS detection. […]

[16] = target: 5-HT2B (h) (Homo sapiens (Human), UniProt P41595); experiment: ExpresSProfile: 5-hydroxytryptamine receptor 2B, agonist radioligand; type: binding; settings: Test Concentration 1.0E−05 M
[17] = tested on: alpha 2 (non-selective); experiment: ExpresSProfile: alpha2 adrenergic receptor, antagonist radioligand; type: binding; settings: Test Concentration 1.0E−05 M
[18] = target: NTS1 (NT1) (h) (Homo sapiens (Human), UniProt P30989); experiment: ExpresSProfile: neurotensin receptor 1, agonist radioligand; type: binding; settings: Test Concentration 1.0E−05 M
[19] = read-out: % Inhibition of Control Specific Binding
[20] = read-out: % of Control Specific Binding 1st
[21] = read-out: % of Control Specific Binding 2nd
[22] = read-out: % of Control Specific Binding Mean

Sequence of A2A (h) (P29274 whole entry): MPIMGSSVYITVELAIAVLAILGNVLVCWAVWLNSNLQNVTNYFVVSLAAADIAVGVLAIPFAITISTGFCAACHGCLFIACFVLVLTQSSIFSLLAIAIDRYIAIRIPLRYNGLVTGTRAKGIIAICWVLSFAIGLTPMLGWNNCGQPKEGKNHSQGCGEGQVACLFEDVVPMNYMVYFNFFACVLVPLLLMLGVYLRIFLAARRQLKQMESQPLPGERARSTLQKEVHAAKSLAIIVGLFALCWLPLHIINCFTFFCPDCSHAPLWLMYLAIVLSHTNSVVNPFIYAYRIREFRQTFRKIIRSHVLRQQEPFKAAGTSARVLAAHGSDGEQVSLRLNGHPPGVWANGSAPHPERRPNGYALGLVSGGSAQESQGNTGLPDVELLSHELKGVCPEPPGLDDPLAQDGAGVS
Sequence of VPAC1 (VIP1) (h) (P32241 31-457): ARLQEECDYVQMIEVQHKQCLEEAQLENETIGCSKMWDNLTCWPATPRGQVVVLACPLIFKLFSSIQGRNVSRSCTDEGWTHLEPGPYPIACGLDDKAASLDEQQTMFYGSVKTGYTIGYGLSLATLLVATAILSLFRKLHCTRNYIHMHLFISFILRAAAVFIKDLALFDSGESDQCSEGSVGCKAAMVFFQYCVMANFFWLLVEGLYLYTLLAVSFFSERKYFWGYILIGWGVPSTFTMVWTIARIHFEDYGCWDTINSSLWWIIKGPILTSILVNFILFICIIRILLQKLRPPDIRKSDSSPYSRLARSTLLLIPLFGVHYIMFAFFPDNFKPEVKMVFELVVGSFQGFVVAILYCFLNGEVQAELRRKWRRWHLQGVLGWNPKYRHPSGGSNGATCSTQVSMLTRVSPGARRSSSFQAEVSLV
Sequence of NTS1 (NT1) (h) (P30989 whole entry): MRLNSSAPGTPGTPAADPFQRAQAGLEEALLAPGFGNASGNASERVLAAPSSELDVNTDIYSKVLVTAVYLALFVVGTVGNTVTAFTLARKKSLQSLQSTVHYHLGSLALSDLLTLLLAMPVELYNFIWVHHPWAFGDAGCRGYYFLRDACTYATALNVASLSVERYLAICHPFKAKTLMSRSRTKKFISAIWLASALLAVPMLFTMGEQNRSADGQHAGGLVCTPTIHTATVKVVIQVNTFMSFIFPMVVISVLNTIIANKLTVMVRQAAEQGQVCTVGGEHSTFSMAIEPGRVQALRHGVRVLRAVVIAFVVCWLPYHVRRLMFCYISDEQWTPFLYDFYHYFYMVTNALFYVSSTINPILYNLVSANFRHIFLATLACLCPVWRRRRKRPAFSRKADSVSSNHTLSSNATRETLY
Sequence of M1 (h) (P11229 whole entry): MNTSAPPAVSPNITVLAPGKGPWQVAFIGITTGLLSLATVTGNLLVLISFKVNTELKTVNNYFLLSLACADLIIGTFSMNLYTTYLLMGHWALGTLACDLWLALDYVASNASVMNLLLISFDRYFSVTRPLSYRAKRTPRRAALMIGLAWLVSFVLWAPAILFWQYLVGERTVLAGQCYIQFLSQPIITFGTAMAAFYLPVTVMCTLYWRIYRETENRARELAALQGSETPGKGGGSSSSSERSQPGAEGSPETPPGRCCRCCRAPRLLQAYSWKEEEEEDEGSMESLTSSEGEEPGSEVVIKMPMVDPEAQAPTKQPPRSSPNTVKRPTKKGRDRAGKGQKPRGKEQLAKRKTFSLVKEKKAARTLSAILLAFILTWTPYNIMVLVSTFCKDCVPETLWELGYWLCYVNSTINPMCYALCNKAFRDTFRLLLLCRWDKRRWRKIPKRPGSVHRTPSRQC
Sequence of dopamine transporter (h) (Q01959 whole entry): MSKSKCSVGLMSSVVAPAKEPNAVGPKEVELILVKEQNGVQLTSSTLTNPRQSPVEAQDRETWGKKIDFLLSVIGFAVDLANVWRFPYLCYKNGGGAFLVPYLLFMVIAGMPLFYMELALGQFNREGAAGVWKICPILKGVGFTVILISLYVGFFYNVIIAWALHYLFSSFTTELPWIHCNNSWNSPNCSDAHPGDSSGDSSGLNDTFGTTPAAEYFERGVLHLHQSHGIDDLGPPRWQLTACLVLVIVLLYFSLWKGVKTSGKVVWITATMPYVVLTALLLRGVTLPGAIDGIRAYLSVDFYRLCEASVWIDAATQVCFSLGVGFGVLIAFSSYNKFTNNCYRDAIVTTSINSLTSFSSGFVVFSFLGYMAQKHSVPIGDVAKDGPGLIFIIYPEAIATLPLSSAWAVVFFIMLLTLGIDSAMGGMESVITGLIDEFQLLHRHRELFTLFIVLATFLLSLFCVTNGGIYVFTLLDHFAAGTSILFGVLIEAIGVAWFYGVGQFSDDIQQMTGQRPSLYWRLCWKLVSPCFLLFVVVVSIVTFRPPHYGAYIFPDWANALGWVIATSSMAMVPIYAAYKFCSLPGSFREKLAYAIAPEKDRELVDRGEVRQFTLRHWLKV
Sequence of M2 (h) (P08172 whole entry): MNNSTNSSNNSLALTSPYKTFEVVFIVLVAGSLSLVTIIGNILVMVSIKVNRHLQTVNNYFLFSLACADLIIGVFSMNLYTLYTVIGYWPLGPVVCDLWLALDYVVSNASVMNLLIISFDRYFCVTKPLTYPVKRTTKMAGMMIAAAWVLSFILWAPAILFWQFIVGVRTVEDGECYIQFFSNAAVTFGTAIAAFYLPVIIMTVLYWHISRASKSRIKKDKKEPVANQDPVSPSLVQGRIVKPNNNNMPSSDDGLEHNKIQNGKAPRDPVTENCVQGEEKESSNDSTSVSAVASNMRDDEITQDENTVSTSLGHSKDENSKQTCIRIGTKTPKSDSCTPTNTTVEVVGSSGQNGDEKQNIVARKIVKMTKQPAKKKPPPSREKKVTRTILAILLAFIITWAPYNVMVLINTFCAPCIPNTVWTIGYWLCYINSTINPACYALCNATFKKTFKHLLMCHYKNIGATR
Sequence of GAL2 (h) (O43603 whole entry): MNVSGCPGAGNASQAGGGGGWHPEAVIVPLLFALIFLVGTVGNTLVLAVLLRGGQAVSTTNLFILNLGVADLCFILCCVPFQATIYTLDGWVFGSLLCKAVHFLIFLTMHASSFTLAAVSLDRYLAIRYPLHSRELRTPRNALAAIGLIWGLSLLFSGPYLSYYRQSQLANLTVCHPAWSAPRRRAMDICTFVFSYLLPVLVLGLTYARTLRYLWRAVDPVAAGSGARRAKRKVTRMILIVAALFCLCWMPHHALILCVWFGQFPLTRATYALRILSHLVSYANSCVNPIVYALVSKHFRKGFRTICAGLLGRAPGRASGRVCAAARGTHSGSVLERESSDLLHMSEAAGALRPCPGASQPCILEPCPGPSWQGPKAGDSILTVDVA
Sequence of beta 1 (h) (P08588 whole entry): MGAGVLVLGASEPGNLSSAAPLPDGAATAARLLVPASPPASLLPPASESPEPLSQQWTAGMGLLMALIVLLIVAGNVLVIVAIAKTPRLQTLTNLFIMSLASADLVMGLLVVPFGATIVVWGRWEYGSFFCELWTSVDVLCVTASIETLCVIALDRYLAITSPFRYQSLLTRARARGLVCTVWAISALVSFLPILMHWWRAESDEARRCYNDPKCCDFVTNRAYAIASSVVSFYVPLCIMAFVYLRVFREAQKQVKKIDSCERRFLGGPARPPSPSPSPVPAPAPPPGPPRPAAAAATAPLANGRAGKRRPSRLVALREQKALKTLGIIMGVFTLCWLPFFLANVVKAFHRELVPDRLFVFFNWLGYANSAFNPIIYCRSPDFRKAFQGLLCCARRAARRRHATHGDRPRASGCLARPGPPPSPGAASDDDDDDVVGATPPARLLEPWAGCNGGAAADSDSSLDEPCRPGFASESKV
Sequence of 5-HT1A (h) (P08908 whole entry): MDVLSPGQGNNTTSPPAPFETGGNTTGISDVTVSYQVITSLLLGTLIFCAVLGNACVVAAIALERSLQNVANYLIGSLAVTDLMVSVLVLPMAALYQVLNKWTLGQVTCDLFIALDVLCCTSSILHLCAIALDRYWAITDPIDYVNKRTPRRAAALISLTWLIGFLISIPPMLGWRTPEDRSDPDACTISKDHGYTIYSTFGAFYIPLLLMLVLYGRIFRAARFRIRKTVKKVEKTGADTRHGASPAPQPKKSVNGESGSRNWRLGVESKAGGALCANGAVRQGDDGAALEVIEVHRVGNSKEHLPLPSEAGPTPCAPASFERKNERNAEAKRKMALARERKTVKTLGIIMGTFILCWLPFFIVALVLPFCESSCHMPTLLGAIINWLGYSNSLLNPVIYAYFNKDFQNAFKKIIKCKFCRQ
Sequence of H2 (h) (P25021 whole entry): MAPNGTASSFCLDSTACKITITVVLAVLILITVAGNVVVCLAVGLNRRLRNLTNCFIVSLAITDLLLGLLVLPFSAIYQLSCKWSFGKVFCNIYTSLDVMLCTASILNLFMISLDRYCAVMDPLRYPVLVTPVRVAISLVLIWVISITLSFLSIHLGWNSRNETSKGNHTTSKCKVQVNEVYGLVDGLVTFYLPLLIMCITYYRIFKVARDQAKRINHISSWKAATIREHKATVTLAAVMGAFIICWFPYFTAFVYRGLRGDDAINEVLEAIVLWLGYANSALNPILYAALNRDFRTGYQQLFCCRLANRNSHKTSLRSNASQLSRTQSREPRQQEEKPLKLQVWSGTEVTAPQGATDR
Sequence of 5-HT2B (h) (P41595 whole entry): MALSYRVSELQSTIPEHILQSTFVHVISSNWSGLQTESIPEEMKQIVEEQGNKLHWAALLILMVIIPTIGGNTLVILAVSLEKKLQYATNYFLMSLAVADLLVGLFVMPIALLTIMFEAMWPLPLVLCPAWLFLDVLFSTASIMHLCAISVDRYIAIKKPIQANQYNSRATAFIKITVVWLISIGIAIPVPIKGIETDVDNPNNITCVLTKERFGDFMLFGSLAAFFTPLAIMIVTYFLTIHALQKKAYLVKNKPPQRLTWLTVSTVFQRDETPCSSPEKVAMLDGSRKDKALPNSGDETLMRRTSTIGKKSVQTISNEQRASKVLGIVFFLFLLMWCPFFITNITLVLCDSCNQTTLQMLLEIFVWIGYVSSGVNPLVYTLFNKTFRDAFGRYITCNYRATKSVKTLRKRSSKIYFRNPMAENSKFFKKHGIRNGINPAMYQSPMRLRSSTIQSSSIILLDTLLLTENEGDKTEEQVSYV

COc1cccc(OC)c1-c1cc(C(=O)NC2(C(=O)O)C3CC4CC(C3)CC2C4)nn1-c1ccc(C(=O)N(C)CCCN(C)CCCN(C)C(=O)CN2CCN(CC(=O)O)CCN(CC(=O)O)CCN(CC(=O)O)CC2)cc1C(C)C (stereo not shown) [(IIIa), 2-{[1-{4-[(3-{[3-(DOTA-methyl-amino)-propyl]-methyl-amino}-propyl)-methyl-carbamoyl]-2-isopropyl-phenyl}-5-(2,6-dimethoxy-phenyl)-1H-pyrazole-3-carbonyl]-amino}-adamantane-2-carboxylic acid]
inhibition at 10 µM [1, 19]: -15% | remaining activity at 10 µM [1, 20]: 124% | remaining activity at 10 µM [1, 21]: 106% | remaining activity at 10 µM [1, 22]: 115% | inhibition at 10 µM [2, 19]: 1% | remaining activity at 10 µM [2, 20]: 103% | remaining activity at 10 µM [2, 21]: 95.9% | remaining activity at 10 µM [2, 22]: 99.3% | specificity [3]: highly specific | inhibition at 10 µM [4, 19]: 2% | remaining activity at 10 µM [4, 20]: 89.9% | remaining activity at 10 µM [4, 21]: 106% | remaining activity at 10 µM [4, 22]: 98% | inhibition at 10 µM [5, 19]: -24% | remaining activity at 10 µM [5, 20]: 143% | remaining activity at 10 µM [5, 21]: 104% | remaining activity at 10 µM [5, 22]: 124% | inhibition at 10 µM [6, 19]: -12% | remaining activity at 10 µM [6, 20]: 119% | remaining activity at 10 µM [6, 21]: 105% | remaining activity at 10 µM [6, 22]: 112% | % Inhibition of Control Specific Binding [7]: 5% | % of Control Specific Binding 1st [7]: 104.2% | % of Control Specific Binding 2nd [7]: 85.6% | % of Control Specific Binding Mean [7]: 94.9% | inhibition at 10 µM [8, 19]: -4% | remaining activity at 10 µM [8, 20]: 106% | remaining activity at 10 µM [8, 21]: 102% | remaining activity at 10 µM [8, 22]: 104% | inhibition at 10 µM [9, 19]: -17% | remaining activity at 10 µM [9, 20]: 124% | remaining activity at 10 µM [9, 21]: 111% | remaining activity at 10 µM [9, 22]: 117% | inhibition at 10 µM [10, 19]: -29% | remaining activity at 10 µM [10, 20]: 130% | remaining activity at 10 µM [10, 21]: 129% | remaining activity at 10 µM [10, 22]: 129% | inhibition at 10 µM [11, 19]: -25% | remaining activity at 10 µM [11, 20]: 111% | remaining activity at 10 µM [11, 21]: 138% | remaining activity at 10 µM [11, 22]: 125% | inhibition at 10 µM [12, 19]: -6% | remaining activity at 10 µM [12, 20]: 104% | remaining activity at 10 µM [12, 21]: 107% | remaining activity at 10 µM [12, 22]: 106% | % Inhibition of Control Specific Binding [13]: 66% | inhibition at 10 µM [13, 19]: 66% | remaining activity at 10 µM [13, 20]: 34.5% | remaining activity at 10 µM [13, 21]: 33.7% | remaining activity at 10 µM [13, 22]: 34.1% | inhibition at 10 µM [14, 19]: 1% | remaining activity at 10 µM [14, 20]: 96.5% | remaining activity at 10 µM [14, 21]: 102% | remaining activity at 10 µM [14, 22]: 99.3% | fraction unbound at 4 h [15]: 0.11 | inhibition at 10 µM [16, 19]: -22% | remaining activity at 10 µM [16, 20]: 118% | remaining activity at 10 µM [16, 21]: 125% | remaining activity at 10 µM [16, 22]: 122% | % Inhibition of Control Specific Binding [17]: −10% | % of Control Specific Binding 1st [17]: 114.4% | % of Control Specific Binding 2nd [17]: 106.1% | % of Control Specific Binding Mean [17]: 110.3% | inhibition at 10 µM [18, 19]: 99% | remaining activity at 10 µM [18, 20]: 2.7% | remaining activity at 10 µM [18, 21]: -0.1% | remaining activity at 10 µM [18, 22]: 1.3%
